Measurements as given in PubChem BioAssay (NCI).
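Here, GI50 denotes the concentration required for 50% inhibition of growth. TGI denotes the concentration required for complete inhibition of growth.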

Experiments:
Assay in all cases: growth of human tumour cells (NCI), 384-well format
MDA-MB-468 breast = tested on: MDA-MB-468 breast
PC-3 prostate = tested on: PC-3 prostate
MALME-3M melanoma = tested on: MALME-3M melanoma
HCT-116 colon = tested on: HCT-116 colon
CAKI-1 renal = tested on: CAKI-1 renal
SF-539 CNS = tested on: SF-539 CNS
SR leukemia = tested on: SR leukemia
SK-OV-3 ovarian = tested on: SK-OV-3 ovarian
KM12 colon = tested on: KM12 colon
UACC-257 melanoma = tested on: UACC-257 melanoma
TK-10 renal = tested on: TK-10 renal
HOP-62 NSCLC = tested on: HOP-62 NSCLC
IGROV1 ovarian = tested on: IGROV1 ovarian
EKVX NSCLC = tested on: EKVX NSCLC
SF-268 CNS = tested on: SF-268 CNS
BT-549 breast = tested on: BT-549 breast
HCT-15 colon = tested on: HCT-15 colon
HL-60(TB) leukemia = tested on: HL-60(TB) leukemia
NCI-H460 NSCLC = tested on: NCI-H460 NSCLC
SK-MEL-5 melanoma = tested on: SK-MEL-5 melanoma
SNB-75 CNS = tested on: SNB-75 CNS
MDA-MB-435 melanoma = tested on: MDA-MB-435 melanoma
UACC-62 melanoma = tested on: UACC-62 melanoma
A549 NSCLC = tested on: A549 NSCLC
NCI-H522 lung = tested on: NCI-H522 lung
RXF 393 renal = tested on: RXF 393 renal
OVCAR-3 ovarian = tested on: OVCAR-3 ovarian
HS 578T breast = tested on: HS 578T breast
LOX IMVI melanoma = tested on: LOX IMVI melanoma
NCI-H226 lung = tested on: NCI-H226 lung
DU-145 prostate = tested on: DU-145 prostate
MCF7 breast = tested on: MCF7 breast
SNB-19 CNS = tested on: SNB-19 CNS
OVCAR-8 ovarian = tested on: OVCAR-8 ovarian
SK-MEL-28 melanoma = tested on: SK-MEL-28 melanoma
RPMI-8226 leukemia = tested on: RPMI-8226 leukemia
COLO 205 colon = tested on: COLO 205 colon
NCI-H23 lung = tested on: NCI-H23 lung
U251 glioblastoma = tested on: U251 glioblastoma
MDA-MB-231 breast = tested on: MDA-MB-231 breast
ACHN renal = tested on: ACHN renal
SF-295 CNS = tested on: SF-295 CNS
HOP-92 NSCLC = tested on: HOP-92 NSCLC
NCI/ADR-RES ovarian = tested on: NCI/ADR-RES ovarian
T-47D breast = tested on: T-47D breast
HT29 colon = tested on: HT29 colon
OVCAR-4 ovarian = tested on: OVCAR-4 ovarian
OVCAR-5 ovarian = tested on: OVCAR-5 ovarian
MOLT-4 leukemia = tested on: MOLT-4 leukemia
SN12C renal = tested on: SN12C renal
A498 renal = tested on: A498 renal
NCI-H322M lung = tested on: NCI-H322M lung

Cn1ncnc1C1c2n[nH]c(=O)c3cc(F)cc(c23)NC1c1ccc(F)cc1 (stereo not drawn)
GI50 (MDA-MB-468 breast): 0.677 µM
TGI (MDA-MB-468 breast): 4.68 µM
GI50 (PC-3 prostate): > 100 µM
TGI (PC-3 prostate): > 100 µM
GI50 (MALME-3M melanoma): > 100 µM
TGI (MALME-3M melanoma): > 100 µM
GI50 (HCT-116 colon): 0.857 µM
TGI (HCT-116 colon): > 100 µM
GI50 (CAKI-1 renal): > 100 µM
TGI (CAKI-1 renal): > 100 µM
GI50 (SF-539 CNS): 1.81 µM
TGI (SF-539 CNS): > 100 µM
TGI (SR leukemia): 0.0215 µM
GI50 (SK-OV-3 ovarian): 2.3 µM
TGI (SK-OV-3 ovarian): > 100 µM
GI50 (KM12 colon): > 100 µM
TGI (KM12 colon): > 100 µM
GI50 (UACC-257 melanoma): > 100 µM
TGI (UACC-257 melanoma): > 100 µM
GI50 (TK-10 renal): > 100 µM
TGI (TK-10 renal): > 100 µM
GI50 (HOP-62 NSCLC): 0.278 µM
TGI (HOP-62 NSCLC): 4.14 µM
GI50 (IGROV1 ovarian): > 100 µM
TGI (IGROV1 ovarian): > 100 µM
GI50 (EKVX NSCLC): > 100 µM
TGI (EKVX NSCLC): > 100 µM
GI50 (SF-268 CNS): 1.73 µM
TGI (SF-268 CNS): > 100 µM
GI50 (BT-549 breast): 4.68 µM
TGI (BT-549 breast): > 100 µM
GI50 (HCT-15 colon): 32.5 µM
TGI (HCT-15 colon): > 100 µM
GI50 (HL-60(TB) leukemia): 1.2 µM
TGI (HL-60(TB) leukemia): 2.56 µM
GI50 (NCI-H460 NSCLC): 0.0191 µM
TGI (NCI-H460 NSCLC): 1.56 µM
GI50 (SK-MEL-5 melanoma): > 100 µM
TGI (SK-MEL-5 melanoma): > 100 µM
GI50 (SNB-75 CNS): 5.52 µM
TGI (SNB-75 CNS): > 100 µM
GI50 (MDA-MB-435 melanoma): > 100 µM
TGI (MDA-MB-435 melanoma): > 100 µM
GI50 (UACC-62 melanoma): > 100 µM
TGI (UACC-62 melanoma): > 100 µM
GI50 (A549 NSCLC): > 100 µM
TGI (A549 NSCLC): > 100 µM
GI50 (NCI-H522 lung): > 100 µM
TGI (NCI-H522 lung): > 100 µM
GI50 (RXF 393 renal): > 100 µM
TGI (RXF 393 renal): > 100 µM
GI50 (OVCAR-3 ovarian): 82.7 µM
TGI (OVCAR-3 ovarian): > 100 µM
GI50 (HS 578T breast): > 100 µM
TGI (HS 578T breast): > 100 µM
GI50 (LOX IMVI melanoma): 2.43 µM
TGI (LOX IMVI melanoma): > 100 µM
GI50 (NCI-H226 lung): > 100 µM
TGI (NCI-H226 lung): > 100 µM
GI50 (DU-145 prostate): 2.2 µM
TGI (DU-145 prostate): 14.4 µM
GI50 (MCF7 breast): 3.63 µM
TGI (MCF7 breast): > 100 µM
GI50 (SNB-19 CNS): 5.2 µM
TGI (SNB-19 CNS): > 100 µM
GI50 (OVCAR-8 ovarian): 2.15 µM
TGI (OVCAR-8 ovarian): > 100 µM
GI50 (SK-MEL-28 melanoma): > 100 µM
TGI (SK-MEL-28 melanoma): > 100 µM
GI50 (RPMI-8226 leukemia): 1.65 µM
TGI (RPMI-8226 leukemia): > 100 µM
GI50 (COLO 205 colon): 1.85 µM
TGI (COLO 205 colon): > 100 µM
GI50 (NCI-H23 lung): 1.89 µM
TGI (NCI-H23 lung): > 100 µM
GI50 (U251 glioblastoma): 3.46 µM
TGI (U251 glioblastoma): > 100 µM
GI50 (MDA-MB-231 breast): > 100 µM
TGI (MDA-MB-231 breast): > 100 µM
GI50 (ACHN renal): 43.6 µM
TGI (ACHN renal): > 100 µM
GI50 (SF-295 CNS): 0.383 µM
TGI (SF-295 CNS): 8.07 µM
GI50 (HOP-92 NSCLC): > 100 µM
TGI (HOP-92 NSCLC): > 100 µM
GI50 (NCI/ADR-RES ovarian): 8.17 µM
TGI (NCI/ADR-RES ovarian): > 100 µM
GI50 (T-47D breast): > 100 µM
TGI (T-47D breast): > 100 µM
GI50 (HT29 colon): > 100 µM
TGI (HT29 colon): > 100 µM
GI50 (OVCAR-4 ovarian): 19 µM
TGI (OVCAR-4 ovarian): > 100 µM
GI50 (OVCAR-5 ovarian): > 100 µM
TGI (OVCAR-5 ovarian): > 100 µM
GI50 (MOLT-4 leukemia): 0.234 µM
TGI (MOLT-4 leukemia): 1.06 µM
GI50 (SN12C renal): 1.53 µM
TGI (SN12C renal): > 100 µM
GI50 (A498 renal): 24.8 µM
TGI (A498 renal): > 100 µM
GI50 (NCI-H322M lung): > 100 µM
TGI (NCI-H322M lung): > 100 µM
